Source: patent publication US20080159980A1, “Combination cancer therapy with a GST-activated anticancer compound and another anticancer therapy” (Telik, Inc., priority 2002, published 2008)
Like-named read-outs stand apart in the source and are kept apart here.

Assays:
GST M1a-1a = biological target: T1, GST M1a-1a (Homo sapiens, UniProt P09488); settings: cited from earlier work
T1 sequence (P09488 1-218): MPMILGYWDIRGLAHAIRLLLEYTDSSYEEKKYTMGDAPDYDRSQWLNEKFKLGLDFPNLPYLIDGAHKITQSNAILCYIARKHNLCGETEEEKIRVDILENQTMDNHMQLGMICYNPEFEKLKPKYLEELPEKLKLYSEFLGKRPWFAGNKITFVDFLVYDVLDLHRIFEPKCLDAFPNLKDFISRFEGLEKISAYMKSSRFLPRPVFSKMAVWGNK

[1] = tested on: human breast cancer cell line MCF-7; assay: MCF-7 cell proliferation, BrdU chemiluminescence assay (Example 4); format: cell-based
Procedure: (§1) Assay methods. All assays were conducted in triplicate wells, with solvent control. The extent of cell growth was expressed as a percentage of the signal from the solvent control wells. The means were computed and graphed, with the standard deviations shown as error bars.
MCF-7 was seeded at 4×10^4 cells/mL, 150 μL/well, and allowed to attach to the wells for 4-5 hours. The diluted compounds or solvent controls were then added at 50 μL/well. Incubation with TLK286 alone and in combination with docetaxel was continued for one doubling, and cell proliferation was determined using the BrdU (chemiluminescence) assay, by labeling with BrdU (Roche Diagnostics Corporation, Indianapolis, Ind., U.S.A.) overnight. The assay is based on the incorporation of BrdU, an analogue of thymidine, during DNA synthesis. The incorporation of BrdU, which reflects the extent of cell proliferation, was then quantitated with an ELISA kit (also from Roche Diagnostics Corporation). The results were analyzed according to the Combination Index method.

[2] = tested on: human breast cancer cell line MX-1; assay: MX-1 cell growth, method similar to Example 2 (Example 9); format: cell-based; settings: MX-1 cells
GST A1-1 = biological target: T2, GST A1-1 (Homo sapiens, UniProt P08263); settings: cited from earlier work
T2 sequence (P08263 2-222 limits assumed): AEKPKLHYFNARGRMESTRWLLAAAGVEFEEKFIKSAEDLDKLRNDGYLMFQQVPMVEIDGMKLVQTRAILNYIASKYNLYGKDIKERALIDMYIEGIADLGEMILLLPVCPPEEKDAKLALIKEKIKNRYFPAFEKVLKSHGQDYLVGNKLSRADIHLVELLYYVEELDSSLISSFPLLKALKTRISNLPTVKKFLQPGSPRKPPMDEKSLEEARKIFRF

GST P1-1 = GST P1-1 (Homo sapiens, UniProt P09211); settings: releases cytotoxic phosphorodiamidate mustard moiety; cited from earlier work
Chain of GST P1-1 (P09211 2-210 limits assumed): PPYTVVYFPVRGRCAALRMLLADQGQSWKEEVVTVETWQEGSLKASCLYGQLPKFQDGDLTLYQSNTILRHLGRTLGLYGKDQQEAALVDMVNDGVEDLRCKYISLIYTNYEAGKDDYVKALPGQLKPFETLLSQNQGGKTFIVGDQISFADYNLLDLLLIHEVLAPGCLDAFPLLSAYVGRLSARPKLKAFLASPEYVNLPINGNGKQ

[3] = tested on: human non-Hodgkin's B cell lymphoma cell line RL; assay: RL cell growth, method similar to Example 2 (Example 8); format: cell-based; settings: RL cells
[4] = tested on: human ovarian cancer cell line OVCAR-3; assay: OVCAR-3 cell viability, Wst-1 assay (Example 1); format: cell-based; settings: OVCAR-3, Wst-1, approximately three cell doublings
Procedure: as §1
The diluted compounds or solvent controls were then added at 50 μL/well. […] The results were further analyzed using the Combination Index (CI) method with the “CalcuSyn” program from Biosoft.

[5] = tested on: human colon cancer cell line DLD-1; assay: cells; format: cell-based; settings: DLD-1, read-out: IC20 (concentration of TLK286 used in FIG. 2)
Procedure: as §1
The human colon cancer cell line DLD-1 was seeded at 4×10^4 cells/mL, 150 μL/well, and allowed to attach to the wells overnight. The diluted compounds or solvent controls were then added at 50 μL/well. Incubation with TLK286 alone and in combination with oxaliplatin was continued for approximately four cell doublings, and cell viability was determined using the CellTiter-Glo assay (Promega Corporation, Madison, Wis., U.S.A.), used in accordance with the assay kit directions. […] The results were further analyzed using the Combination Index (CI) method with the “CalcuSyn” program from Biosoft.

[6] = tested on: MCF-7 human breast carcinoma cell line selected for resistance to cyclophosphamide; settings: cyclophosphamide-resistant line overexpressing GST P1-1; Morgan et al. 1998; cited from earlier work
[7] = tested on: human ovarian cancer cell line OVCAR-3
Procedure: The results were analyzed according to the Combination Index method with the “CalcuSyn” program from Biosoft.

[8] = tested on: murine xenografts of M7609 engineered to have high, medium, and low levels of GST P1-1; settings: Morgan et al. 1998; cited from earlier work
[9] = tested on: M6709 human colon carcinoma cell line selected for resistance to doxorubicin; settings: doxorubicin-resistant line overexpressing GST P1-1; Morgan et al. 1998; cited from earlier work
[10] = tested on: ovarian, breast, non-small cell lung, and colorectal cancers
[11] = tested on: in vitro cell culture and tumor biopsies; settings: Rosario et al. 2000; cited from earlier work
[12] = tested on: human lung cancer cell line A-549; assay: cells; format: cell-based; settings: A549, read-out: IC50 (concentration of TLK286 used in FIG. 5)

Structure (SMILES): N[C@@H](CCC(=O)N[C@@H](CS(=O)(=O)CCOP(=O)(N(CCCl)CCCl)N(CCCl)CCCl)C(=O)NCC(=O)O)C(=O)O [TLK231, L-γ-glutamyl-3-[[2-[[bis[bis(2-chloroethyl)amino]phosphinyl]oxy]ethyl]sulfonyl]-L-alanyl-glycine]
- activation by GST isoenzyme (GST M1a-1a): activated

Structure (SMILES): CC(=O)O[C@@]12CO[C@@H]1C[C@H](O)[C@@]1(C)C(=O)[C@H](O)C3=C(C)[C@@H](OC(=O)[C@H](O)[C@@H](NC(=O)OC(C)(C)C)c4ccccc4)C[C@@](O)([C@@H](OC(=O)c4ccccc4)[C@H]21)C3(C)C [docetaxel, reference compound]
- inhibition of proliferation at top of concentration range ([1]; MCF-7, BrdU, docetaxel about 0.8 to 3 nM, from nearly no effect): ~60%

Structure (SMILES): COc1cc2ncnc(Nc3ccc(F)c(Cl)c3)c2cc1OCCCN1CCOCC1 [gefitinib]
- IC30 (concentration of gefitinib used in FIG. 9) [2]: ~2.0 µM

Structure (SMILES): C[C@@](NC(=O)[C@H](CS(=O)(=O)CCOP(=O)(N(CCCl)CCCl)N(CCCl)CCCl)NC(=O)CC[C@H](N)C(=O)O)(C(=O)O)c1ccccc1 [TLK303, L-γ-glutamyl-3-[[2-[[bis[bis(2-choroethyl)-amino]phosphinyl]oxy]ethyl]sulfonyl]-L-alanyl-2-phenyl-(2S) -alanine]
- activation by GST isoenzyme (GST A1-1): activated

Structure (SMILES): N[C@@H](CCC(=O)N[C@@H](CS(=O)(=O)CCOP(=O)(N(CCCl)CCCl)N(CCCl)CCCl)C(=O)N[C@@H](C(=O)O)c1ccccc1)C(=O)O [TLK286, L-γ-glutamyl-3-[[2-[[bis[bis (2-chloroethyl)amino]phosphinyl]oxy]ethyl]sulfonyl]-L-alanyl-2-phenyl-(2R)-glycine]
- activation by GST isoenzyme (GST P1-1): activated
- IC25 (concentration of TLK286 used in FIG. 8) [3]: ~4.6 µM
- IC30 (concentration of TLK286 used in FIG. 1) [4]: ~3.1 µM
- IC20 [5]: ~9 µM
- potency in resistant line over parental cell line [6]: more potent
- IC10 (concentration of TLK286 used in FIG. 3) [7]: ~1.7 µM
- potency in xenografts versus GST P1-1 level [8]: positively correlated with the level of GST P1-1
- potency in resistant line over parental cell line [9]: more potent
- single agent clinical activity ([10]; colorectal and breast cancer): single agent antitumor activity
- single agent clinical activity ([10]; patients with non-small cell lung cancer and ovarian cancer): significant single agent antitumor activity and improvement in survival
- activation by GST isoenzyme (GST A1-1): activated
- cross-resistance to platinum, paclitaxel, doxorubicin and gemcitabine [11]: non-cross-resistant
- IC40 (concentration of TLK286 used in FIG. 4) ([1]; MCF-7, BrdU incorporation, one doubling): ~3.3 µM
- IC50 [12]: ~4 µM

Structure (SMILES): N[C@@H](CCC(=O)N[C@@H](Cc1cccc(S(=O)(=O)CCOP(=O)(N(CCCl)CCCl)N(CCCl)CCCl)c1)C(=O)NCC(=O)O)C(=O)O [TLK296, L-γ-glutamyl-3-[[2-[[bis[bis(2-chloroethyl)amino]phosphinyl]oxy]ethyl]sulfonyl]-L-phenylalanyl-glycine]
- activation by GST isoenzyme (GST P1-1): activated
